{
  "source": "patent US20230303497A1",
  "about": "“BENZYLAMINE OR BENZYL ALCOHOL DERIVATIVE AND USES THEREOF” (CHENGDU HYPERWAY PHARMACEUTICALS CO., LTD, priority 2020, published 2023)",
  "data": [
    {"biological_target": "human NaV1.8 ion channel (Homo sapiens (Human), UniProt Q9Y5Y9)", "sequence (Q9Y5Y9 whole entry)": "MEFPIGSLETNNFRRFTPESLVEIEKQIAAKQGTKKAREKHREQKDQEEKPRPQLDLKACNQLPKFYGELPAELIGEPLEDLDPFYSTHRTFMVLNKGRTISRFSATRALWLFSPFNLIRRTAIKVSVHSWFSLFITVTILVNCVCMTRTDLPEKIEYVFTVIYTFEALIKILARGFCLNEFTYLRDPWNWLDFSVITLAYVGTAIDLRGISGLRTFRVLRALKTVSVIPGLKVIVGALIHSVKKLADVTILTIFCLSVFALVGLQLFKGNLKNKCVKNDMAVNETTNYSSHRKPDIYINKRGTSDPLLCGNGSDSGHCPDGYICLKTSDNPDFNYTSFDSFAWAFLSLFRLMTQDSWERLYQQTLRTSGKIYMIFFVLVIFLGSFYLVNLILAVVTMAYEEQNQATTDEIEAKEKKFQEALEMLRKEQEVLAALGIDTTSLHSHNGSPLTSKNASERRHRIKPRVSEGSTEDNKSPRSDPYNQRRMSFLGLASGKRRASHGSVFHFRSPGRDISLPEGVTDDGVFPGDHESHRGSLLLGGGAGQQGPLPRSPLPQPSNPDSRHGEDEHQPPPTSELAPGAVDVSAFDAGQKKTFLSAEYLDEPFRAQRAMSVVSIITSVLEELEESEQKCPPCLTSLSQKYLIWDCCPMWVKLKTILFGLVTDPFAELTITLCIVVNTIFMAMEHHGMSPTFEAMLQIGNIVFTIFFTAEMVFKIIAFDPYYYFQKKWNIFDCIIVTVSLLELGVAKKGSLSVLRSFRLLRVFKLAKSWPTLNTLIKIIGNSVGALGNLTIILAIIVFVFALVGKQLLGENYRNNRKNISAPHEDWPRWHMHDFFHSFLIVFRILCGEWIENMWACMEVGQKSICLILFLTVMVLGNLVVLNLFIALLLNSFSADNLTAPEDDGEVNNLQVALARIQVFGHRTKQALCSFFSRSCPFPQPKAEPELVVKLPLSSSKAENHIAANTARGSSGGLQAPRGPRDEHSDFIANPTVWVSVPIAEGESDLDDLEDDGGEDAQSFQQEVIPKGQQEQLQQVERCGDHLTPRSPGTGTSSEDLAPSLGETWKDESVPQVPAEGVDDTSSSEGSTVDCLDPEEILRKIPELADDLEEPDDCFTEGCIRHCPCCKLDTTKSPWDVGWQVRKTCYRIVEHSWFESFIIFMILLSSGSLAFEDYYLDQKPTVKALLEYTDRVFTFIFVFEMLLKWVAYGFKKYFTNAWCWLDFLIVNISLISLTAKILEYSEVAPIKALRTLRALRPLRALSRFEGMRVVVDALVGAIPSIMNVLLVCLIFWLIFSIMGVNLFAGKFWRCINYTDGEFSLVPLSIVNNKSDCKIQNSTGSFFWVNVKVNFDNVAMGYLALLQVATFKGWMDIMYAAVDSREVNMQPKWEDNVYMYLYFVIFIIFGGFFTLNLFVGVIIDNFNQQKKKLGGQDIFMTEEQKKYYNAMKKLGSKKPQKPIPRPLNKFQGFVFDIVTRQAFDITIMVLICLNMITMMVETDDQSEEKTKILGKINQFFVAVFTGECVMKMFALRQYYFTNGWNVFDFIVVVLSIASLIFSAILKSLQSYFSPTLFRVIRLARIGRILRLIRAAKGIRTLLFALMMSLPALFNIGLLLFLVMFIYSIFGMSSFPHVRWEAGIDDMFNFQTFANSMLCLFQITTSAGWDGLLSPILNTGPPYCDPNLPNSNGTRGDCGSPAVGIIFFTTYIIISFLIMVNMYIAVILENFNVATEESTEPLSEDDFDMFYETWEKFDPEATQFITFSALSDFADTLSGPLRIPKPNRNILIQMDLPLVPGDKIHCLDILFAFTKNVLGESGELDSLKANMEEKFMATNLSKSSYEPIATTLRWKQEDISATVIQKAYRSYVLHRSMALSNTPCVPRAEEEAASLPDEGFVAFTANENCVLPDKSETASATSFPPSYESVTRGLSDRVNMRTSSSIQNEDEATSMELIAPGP", "assay": "Compound inhibition activity on human NaV1.8 ion channel in HEK293 cells (whole-cell patch clamp)", "format": "cell-based", "conditions": "100 nm concentration; HEK293 cells, resting protocol; read-out: Inhibition ratio of Nav1.8 (Activity of inhibition)", "procedure": "(§1) Test Case 1: Compound Inhibition Activity on Human NaV1.8 Ion Channel in HEK293 Cells\n(§2) The final concentrations of the test compounds are prepared on the same day and then dissolved in extracellular solution. […] The intracellular solution (mM) contains: Aspartic acid, 140; MgCl2, 2; EGTA 11; HEPES, 10; pH 7.2 (CsOH titration). All test solutions contain 1 μM TTX.\n(§3) The test solution are stored at a concentration of 3 mM in dimethyl sulfoxide (DMSO). The solutions will be dissolved in extracellular solution on the day of testing and prepared to the required concentration.\n(§4) All experiments were performed at room temperature. Each cell itself is taken as the corresponding control.\n(§5) At least one cell is tested per concentration.\n(§6) HEK293 cell steady expressing NaV1.8 ion channel.\n(§7) The intracellular fluid (mM) contains: Aspartic acid, 140; MgCl2, 2; EGTA 11; HEPES, 10; pH 7.2 (CsOH titration). […] Electrodes are drawn with PC-10 (Narishige, Japan). Recording is performed with whole-cell diaphragm clamp.\n(§8) The cells are clamped at −80 mV and then depolarized to 10 mV with a sustained 10 ms square wave to give a Nav1.8 current. This procedure is repeated every 5 seconds.", "units": {"inhibition at 0.1 µM": "%"}, "values": [
      {"smiles": "Cc1cc(F)ccc1Oc1ccc(C(F)(F)F)cc1C(=O)Nc1ccc(F)c(C(C)C(N)=O)c1", "note": "(stereo not drawn) [Example 27, N-(3-(1-Amino-1-oxopropan-2-yl)-4-fluorophenyl)-2-(4-fluoro-2-methylphenoxy)-5-(trifluoromethyl) benzamide]", "inhibition at 0.1 µM": "> 80"},
      {"smiles": "Cc1cc(F)ccc1Oc1cc(C2CC2)c(C(F)(F)F)cc1C(=O)Nc1ccc(F)c(C(C)CCO)c1", "note": "(stereo not drawn) [Example 28, 4-cyclopropyl-2-(4-fluoro-2-methylphenoxy)-N-(4-fluoro-3-(4-hydroxybutan-2-yl)phenyl)-5-(trifluoromethyl) benzamide]", "inhibition at 0.1 µM": "20 to 50"},
      {"smiles": "Cc1cc(F)ccc1Oc1cc(C2CC2)c(C(F)(F)F)cc1C(=O)Nc1ccc(F)c(C(C)CCN)c1", "note": "(stereo not drawn) [Example 29, N-(3-(4-Aminobutan-2-yl)-4-fluorophenyl)-4-cyclopropyl-2-(4-fluoro-2-methylphenoxy)-5-(trifluoromethyl) benzamide]", "inhibition at 0.1 µM": "50 to 80"},
      {"smiles": "Cc1cc(F)ccc1Oc1cc(C2CC2)c(C(F)(F)F)cc1C(=O)Nc1ccc(F)c(C(C)CN)c1", "note": "(stereo not drawn) [Example 30, N-(3-(1-aminopropyl-2-yl)-4-fluorophenyl)-4-cyclopropyl-2-(4-fluoro-2-methylphenoxy)-5-(trifluoromethyl) benzamide]", "inhibition at 0.1 µM": "50 to 80"},
      {"smiles": "Cc1cc(F)ccc1Oc1cc(C2CC2)c(C(F)(F)F)cc1C(=O)Nc1ccc(F)c(C(F)CCO)c1", "note": "(stereo not drawn) [Example 31, 4-Cyclopropyl-2-(4-fluoro-2-methylphenoxy)-N-(4-fluoro-3-(1-fluoro-3-hydroxypropyl)phenyl)-5-(trifluoromethyl) benzamide]", "inhibition at 0.1 µM": "50 to 80"},
      {"smiles": "Cc1cc(F)ccc1Oc1cc(C2CC2)c(C(F)(F)F)cc1C(=O)Nc1ccc(F)c(C(F)(F)CCO)c1", "note": "[Example 32, 4-Cyclopropyl-N-(3-(1,1-difluoro-3-hydroxypropyl)-4-fluorophenyl)-2-(4-fluoro-2-methylphenoxy)-5-(trifluoromethyl) benzamide]", "inhibition at 0.1 µM": "20 to 50"},
      {"smiles": "Cc1cc(F)ccc1Oc1cc(C2CC2)c(C(F)(F)F)cc1C(=O)Nc1ccc(F)c(C(F)(F)C(=O)NCCO)c1", "note": "[Example 33, 4-Cyclopropyl-N-(3-(1,1-difluoro-2-((2-hydroxyethyl)amino)-2-oxoethyl)-4-fluorophenyl)-2-(4-fluoro-2-methylphenoxy)-5-(trifluoromethyl) benzamide]", "inhibition at 0.1 µM": "< 20"},
      {"smiles": "Cc1cc(F)ccc1Oc1cc(C2CC2)c(C(F)(F)F)cc1C(=O)Nc1ccc(F)c(OCCN)c1", "note": "[Example 34, N-(3-(2-aminoethoxy)-4-fluorophenyl)-4-cyclopropyl-2-(4-fluoro-2-methylphenoxy)-5-(trifluoromethyl) benzamide]", "inhibition at 0.1 µM": "50 to 80"},
      {"smiles": "Cc1cc(F)ccc1Oc1cc(C2CC2)c(C(F)(F)F)cc1C(=O)Nc1ccnc(C(N)CC(N)=O)c1", "note": "(stereo not drawn) [Example 35]", "inhibition at 0.1 µM": "> 80"},
      {"smiles": "Cc1cc(F)ccc1Oc1cc(C2CC2)c(C(F)(F)F)cc1C(=O)Nc1ccc(F)c(C(N)CC(N)=O)c1", "note": "(stereo not drawn) [Example 37]", "inhibition at 0.1 µM": "> 80"},
      {"smiles": "Cc1cc(F)ccc1Oc1cc(C(F)(F)F)ccc1C(=O)Nc1ccc(F)c(C(N)CC(N)=O)c1", "note": "(stereo not drawn) [Example 39]", "inhibition at 0.1 µM": "> 80"},
      {"smiles": "Cc1cc(F)ccc1Oc1ccc(C(F)(F)F)cc1C(=O)Nc1ccnc(CN)c1", "note": "[Example 40]", "inhibition at 0.1 µM": "50 to 80"},
      {"smiles": "Cc1cc(F)ccc1Oc1cc(C(F)(F)F)ccc1C(=O)Nc1ccc(F)c(C(N)C(N)=O)c1", "note": "(stereo not drawn) [Example 41]", "inhibition at 0.1 µM": "> 80"},
      {"smiles": "CNC(=O)C(N)c1cc(NC(=O)c2ccc(C(F)(F)F)cc2Oc2ccc(F)cc2C)ccc1F", "note": "(stereo not drawn) [Example 42]", "inhibition at 0.1 µM": "> 80"},
      {"smiles": "Cc1cc(F)ccc1Oc1cc(C2CC2)c(C(F)(F)F)cc1C(=O)Nc1ccc(F)c(C(N)C(=O)NCCO)c1", "note": "(stereo not drawn) [Example 43]", "inhibition at 0.1 µM": "50 to 80"},
      {"smiles": "COCCNC(=O)C(N)c1cc(NC(=O)c2cc(C(F)(F)F)c(C3CC3)cc2Oc2ccc(F)cc2C)ccc1F", "note": "(stereo not drawn) [Example 44]", "inhibition at 0.1 µM": "50 to 80"}
    ]},
    {"biological_target": "human NaV1.8 ion channel (Homo sapiens (Human), UniProt Q9Y5Y9)", "assay": "Compound inhibition activity on human NaV1.8 ion channel in HEK293 cells (whole-cell patch clamp)", "format": "cell-based", "conditions": "100 nm concentration; HEK293 cells, resting protocol; read-out: Inhibition ratio of compounds against Nav1.8 (Activity of inhibition)", "procedure": "as §1, §2, §3, §4, §5, §6, §7, §8", "units": {"inhibition at 0.1 µM": "%"}, "values": [
      {"smiles": "Cc1cc(F)ccc1Oc1cc(C2CC2)c(C(F)(F)F)cc1C(=O)Nc1ccc(F)c(C(N)CC(C)N)c1", "note": "(stereo not drawn) [Example 46, 4-Cyclopropyl-N-(3-(1,3-diaminobutyl)-4-fluorophenyl)-2-(4-fluoro-2-methylphenoxy)-5-(trifluoromethyl) benzamide]", "inhibition at 0.1 µM": "> 80"},
      {"smiles": "Cc1cc(F)ccc1Oc1cc(C2CC2)c(C(F)(F)F)cc1C(=O)Nc1ccc(F)c(C(F)CN)c1", "note": "(stereo not drawn) [Example 47, N-(3-(2-Amino-1-fluoroethyl)-4-fluorophenyl)-4-cyclopropyl-2-(4-fluoro-2-methylphenoxy)-5-(trifluoromethyl) benzamide]", "inhibition at 0.1 µM": "50 to 80"},
      {"smiles": "Cc1cc(F)ccc1Oc1cc(C2CC2)c(C(F)(F)F)cc1C(=O)Nc1ccc(F)c(C(C)CC(N)=O)c1", "note": "(stereo not drawn) [Example 48, N-(3-(4-Amino-4-oxobutan-2-yl)-4-fluorophenyl)-4-cyclopropyl-2-(4-fluoro-2-methylphenoxy)-5-(trifluoromethyl) benzamide]", "inhibition at 0.1 µM": "> 80"},
      {"smiles": "Cc1cc(F)ccc1Oc1cc(C2CC2)c(C(F)(F)F)cc1C(=O)Nc1ccc(F)c(C(CCO)n2ccnc2)c1", "note": "(stereo not drawn) [Example 49, 4-Cyclopropyl-2-(4-fluoro-2-methylphenoxy)-N-(4-fluoro-3-(3-hydroxy-1-(1H-imidazol-1-yl)propyl)phenyl)-5-(trifluoromethyl) benzamide]", "inhibition at 0.1 µM": "50 to 80"},
      {"smiles": "Cc1cc(F)ccc1Oc1cc(C2CC2)c(C(F)(F)F)cc1C(=O)Nc1ccc(F)c(C2CCNC(=O)CN2)c1", "note": "(stereo not drawn) [Example 50]", "inhibition at 0.1 µM": "20 to 50"},
      {"smiles": "Cc1cc(F)ccc1Oc1cc(C2CC2)c(C(F)(F)F)cc1C(=O)Nc1ccc(F)c(C2CCNC(=O)N2)c1", "note": "(stereo not drawn) [Example 51, 4-Cyclopropyl-2-(4-fluoro-2-methylphenoxy)-N-(4-fluoro-3-(2-oxohexahydropyrimidin-4-yl)phenyl)-5-(trifluoromethyl) benzamide]", "inhibition at 0.1 µM": "> 80"},
      {"smiles": "Cc1cc(F)ccc1Oc1cc(C2CC2)c(C(F)(F)F)cc1C(=O)Nc1ccc(F)c(N)c1", "note": "[Example 52, N-(3-Amino-4-fluorophenyl)-4-cyclopropyl-2-(4-fluoro-2-methylphenoxy)-5-(trifluoromethyl) benzamide]", "inhibition at 0.1 µM": "50 to 80"},
      {"smiles": "Cc1cc(F)ccc1Oc1cc(C2CC2)c(C(F)(F)F)cc1C(=O)Nc1ccc(F)c(C(C)CC(N)C(F)(F)F)c1", "note": "(stereo not drawn) [Example 53, N-(3-(4-Amino-5,5,5-trifluoropentan-2-yl)-4-fluorophenyl)-4-cyclopropyl-2-(4-fluoro-2-methylphenoxy)-5-(trifluoromethyl) benzamide]", "inhibition at 0.1 µM": "< 20"},
      {"smiles": "Cc1cc(F)ccc1Oc1cc(C2CC2)c(C(F)(F)F)cc1C(=O)Nc1ccc(F)c(C(C)CC(O)CNC(C)(C)C)c1", "note": "(stereo not drawn) [Example 54, N-(3-(5-(tert-butylamino)-4-hydroxypentan-2-yl)-4-fluorophenyl)-4-cyclopropyl-2-(4-fluoro-2-methylphenoxy)-5-(trifluoromethyl) benzamide]", "inhibition at 0.1 µM": "50 to 80"},
      {"smiles": "Cc1cc(F)ccc1Oc1cc(C2CC2)c(C(F)(F)F)cc1C(=O)Nc1ccc(F)c(C(C)C(O)CNC(C)(C)C)c1", "note": "(stereo not drawn) [Example 55, N-(3-(4-(tert-butylamino)-3-hydroxybutan-2-yl)-4-fluorophenyl)-4-cyclopropyl-2-(4-fluoro-2-methylphenoxy)-5-(trifluoromethyl) benzamide]", "inhibition at 0.1 µM": "> 80"},
      {"smiles": "Cc1cc(F)ccc1Oc1cc(C2CC2)c(C(F)(F)F)cc1C(=O)Nc1ccc(F)c(O)c1", "note": "[Example 56, 4-cyclopropyl-2-(4-fluoro-2-methylphenoxy)-N-(4-fluoro-3-hydroxyphenyl)-5-(trifluoromethyl) benzamide]", "inhibition at 0.1 µM": "50 to 80"},
      {"smiles": "Cc1cc(F)ccc1Oc1cc(C2CC2)c(C(F)(F)F)cc1C(=O)Nc1ccc(F)c(OCC(O)CN)c1", "note": "(stereo not drawn) [Example 57, N-(3-(3-amino-2-hydroxypropoxy)-4-fluorophenyl)-4-cyclopropyl-2-(4-fluoro-2-methylphenoxy)-5-(trifluoromethyl) benzamide]", "inhibition at 0.1 µM": "> 80"},
      {"smiles": "Cc1cc(F)ccc1Oc1cc(C2CC2)c(C(F)(F)F)cc1C(=O)Nc1ccc(F)c(OC2CC(N)C2)c1", "note": "(stereo not drawn) [Example 58, N-(3-(3-aminocyclobutoxy)-4-fluorophenyl)-4-cyclopropyl-2-(4-fluoro-2-methylphenoxy)-5-(trifluoromethyl) benzamide]", "inhibition at 0.1 µM": "50 to 80"},
      {"smiles": "Cc1cc(F)ccc1Oc1cc(C2CC2)c(C(F)(F)F)cc1C(=O)Nc1ccc(F)c(OCCNS(C)(=O)=O)c1", "note": "[Example 59, 4-cyclopropyl-2-(4-fluoro-2-methylphenoxy)-N-(4-fluoro-3-(2-(methylsulfonamido)ethoxy)phenyl)-5-(trifluoromethyl) benzamide]", "inhibition at 0.1 µM": "20 to 50"},
      {"smiles": "Cc1cc(F)ccc1Oc1cc(C2CC2)c(C(F)(F)F)cc1C(=O)Nc1ccc(F)c(OCC(O)C(F)(F)F)c1", "note": "(stereo not drawn) [Example 60, 4-cyclopropyl-2-(4-fluoro-2-methylphenoxy)-N-(4-fluoro-3-(3,3,3-trifluoro-2-hydroxypropoxy)phenyl)-5-(trifluoromethyl) benzamide]", "inhibition at 0.1 µM": "< 20"},
      {"smiles": "Cc1cc(F)ccc1Oc1cc(C2CC2)c(C(F)(F)F)cc1C(=O)Nc1ccc(F)c(OCC(=O)NCC(F)(F)F)c1", "note": "[Example 61]", "inhibition at 0.1 µM": "20 to 50"}
    ]},
    {"biological_target": "human NaV1.8 ion channel (Homo sapiens (Human), UniProt Q9Y5Y9)", "assay": "Compound inhibition activity on human NaV1.8 ion channel in HEK293 cells (whole-cell patch clamp)", "format": "cell-based", "conditions": "HEK293, read-out: Inhibition ratio of compounds against Nav1.8 (Activity of inhibition)", "procedure": "as §1, §2, §3, §4, §5, §6, §7, §8", "units": {"inhibition at 0.1 µM": "%"}, "values": [
      {"smiles": "Cc1cc(F)ccc1Oc1cc(C2CC2)c(C(F)(F)F)cc1C(=O)Nc1ccc(F)c(OCCOC(N)=O)c1", "note": "[Example 62, (2-(5-(4-Cyclopropyl-2-(4-fluoro-2-methylphenoxy)-5-(trifluoromethyl)benzamido)-2-fluorophenoxy)ethyl) carbamate]", "inhibition at 0.1 µM": "50 to 80"}
    ]}
  ]
}
